Experimental data from patent US20240158446A1, “CYCLIC COMPOUND HAVING SELECTIVE INHIBITORY ACTION ON KRAS OVER HRAS AND NRAS” (CHUGAI SEIYAKU KABUSHIKI KAISHA, priority 2021, published 2024).
pKd: −log10 of the molar value. Like-named read-outs stand apart in the source and are kept apart here. Where a SMILES comes first, the peptide text is derived from it. Bridges are numbered along the chain shown (N, C = ends). [ ]: non-standard residue; d: D form. The star is where a group is joined. hPhe(3,5-F2-4-CF3) = N[C@@H](CCc1cc(F)c(C(F)(F)F)c(F)c1)C(=O)O; hPhe(3-Cl-4-CF3) = N[C@@H](CCc1ccc(C(F)(F)F)c(Cl)c1)C(=O)O; NPrPhe(4-CF3) = CCCN[C@@H](Cc1ccc(C(F)(F)F)cc1)C(=O)O; NMeGly(cPent) = CN[C@H](C(=O)O)C1CCCC1; Pro(4,4-F2) = O=C(O)[C@@H]1CC(F)(F)CN1; Hyp = O=C(O)[C@@H]1C[C@@H](O)CN1; αMeF = C[C@](N)(Cc1ccccc1)C(=O)O; NMeD = CN[C@@H](CC(=O)O)C(=O)O; NMeL = CN[C@@H](CC(C)C)C(=O)O; Morpholide = C1CN(*)CCO1; NMeA = CN[C@@H](C)C(=O)O; Ac5c = NC1(C(=O)O)CCCC1; Aze = O=C(O)[C@@H]1CCN1; Ac4c = NC1(C(=O)O)CCC1; NEtG = CCNCC(=O)O; Sar = CNCC(=O)O

Experiments:
[1] = molecular target: GDP-bound HRAS wild-type protein (Homo sapiens, UniProt P01112); assay: Binding to HRAS by surface plasmon resonance (SPR), Single Cycle Kinetics; conditions: SPR, GDP-bound HRAS wild-type protein vs GDP-bound KRAS wild-type protein
GDP-bound HRAS wild-type protein, sequence (P01112 whole entry): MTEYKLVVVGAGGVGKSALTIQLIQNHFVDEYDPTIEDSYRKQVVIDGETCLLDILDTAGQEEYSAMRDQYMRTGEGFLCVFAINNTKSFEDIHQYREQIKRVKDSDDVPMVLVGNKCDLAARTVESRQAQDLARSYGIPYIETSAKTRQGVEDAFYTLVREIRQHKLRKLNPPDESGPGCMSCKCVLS

[2] = molecular target: GDP-bound NRAS wild-type protein (Homo sapiens, UniProt P01111); assay: Binding to NRAS by surface plasmon resonance (SPR), Single Cycle Kinetics; conditions: SPR, GDP-bound NRAS wild-type protein vs GDP-bound KRAS wild-type protein
GDP-bound NRAS wild-type protein, sequence (P01111 whole entry): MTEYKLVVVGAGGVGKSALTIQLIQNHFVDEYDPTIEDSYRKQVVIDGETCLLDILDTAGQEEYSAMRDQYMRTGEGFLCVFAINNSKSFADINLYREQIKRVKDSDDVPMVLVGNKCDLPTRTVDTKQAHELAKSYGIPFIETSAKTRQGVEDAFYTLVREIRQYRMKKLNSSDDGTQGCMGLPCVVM

[3] = molecular target: GDP-bound KRAS wild-type protein (Homo sapiens, UniProt P01116); assay: Binding to KRAS by surface plasmon resonance (SPR), Single Cycle Kinetics; conditions: GDP-bound KRAS wild-type protein, read-out: KRAS KD
GDP-bound KRAS wild-type protein, sequence (P01116 whole entry): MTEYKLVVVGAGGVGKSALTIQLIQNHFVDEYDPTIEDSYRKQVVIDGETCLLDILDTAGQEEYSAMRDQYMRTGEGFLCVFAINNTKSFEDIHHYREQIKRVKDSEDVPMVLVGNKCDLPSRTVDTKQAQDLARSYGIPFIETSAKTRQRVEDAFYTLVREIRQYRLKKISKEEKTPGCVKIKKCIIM

[4] = SPR Single Cycle Kinetics, 1:1 binding model
[5] = SPR, Single Cycle Kinetics, 1:1 binding model

Row | Structure (SMILES) | pKd [3, 4] | pKd ([3]; SPR, Single Cycle Kinetics) | HRAS/KRAS (ratio of KD value for HRAS to KD value for KRAS) [1] | NRAS/KRAS (ratio of KD value for NRAS to KD value for KRAS) [2] | also measured
1 | CCCN1C(=O)[C@@H]2CCN2C(=O)[C@H](C)N(C)C(=O)[C@H]([C@@H](C)CC)NC(=O)[C@H](CC(C)C)N(C)C(=O)C[C@@H](C(=O)N(C)C)N(C)C(=O)[C@H](C2CCCC2)N(C)C(=O)C2(CCCC2)NC(=O)[C@@H]2CCCN2C(=O)[C@H](CCc2ccc(C(F)(F)F)c(Cl)c2)NC(=O)CN(C)C(=O)[C@@H]1Cc1ccc(C(F)(F)F)cc1 [PP0178] ([NMeL]I[NMeA][Aze][NPrPhe(4-CF3)][Sar][hPhe(3-Cl-4-CF3)]P[Ac5c][NMeGly(cPent)][NMeD]-NMe2; lactam N-11) | 10.14 |  | B (a compound having 3 or more and less than 10 is denoted as B) | C (A compound having a KD ratio of 0.1 or more and less than 3 is denoted as C) | 
2 | CCCN1C(=O)CN(C)C(=O)CN(C)C(=O)[C@H]([C@@H](C)CC)NC(=O)[C@H](CC(C)C)N(C)C(=O)C[C@@H](C(=O)N(C)C)N(C)C(=O)[C@H](C2CCCC2)N(C)C(=O)[C@](C)(Cc2ccccc2)NC(=O)[C@@H]2CCCN2C(=O)[C@H](CCc2cc(F)c(C(F)(F)F)c(F)c2)NC(=O)CN(C)C(=O)[C@@H]1Cc1ccc(C(F)(F)F)cc1 [PP0740] ([NMeL]I[Sar][Sar][NPrPhe(4-CF3)][Sar][hPhe(3,5-F2-4-CF3)]P[αMeF][NMeGly(cPent)][NMeD]-NMe2; lactam N-11) | 9.33 |  |  |  | HRAS/KRAS (ratio of KD value with respect to HRAS to KD value with respect to KRAS) [1]: C (A compound having a KD ratio of 0.1 or more and less than 3 is denoted as C); NRAS/KRAS (ratio of KD value with respect to NRAS to KD value with respect to KRAS) [2]: B (a compound having 3 or more and less than 10 is denoted as B)
3 | CCO[C@@H]1C[C@H]2C(=O)NC3(CC(C)(C)C3)C(=O)N(C)[C@@H](C3CCCC3)C(=O)N(C)[C@H](C(=O)N(C)C)CC(=O)N(C)[C@@H](CC3CC3)C(=O)N[C@@H]([C@@H](C)CC)C(=O)N(C)CC(=O)N(C)[C@H]3C/C=C\CCN(C3=O)[C@@H](Cc3ccc(C(F)(F)F)cc3)C(=O)N(C)CC(=O)N[C@@H](CCc3cc(F)c(C(F)(F)F)c(F)c3)C(=O)N2C1 [PP1568] |  |  |  |  | HRAS/KRAS (ratio of KD value for HRAS to KD value for KRAS) ([1]; KD ratio class): A (a compound having 10 or more and less than 20 is denoted as A); NRAS/KRAS (ratio of KD value for NRAS to KD value for KRAS) ([2]; KD ratio class): A (a compound having 10 or more and less than 20 is denoted as A); pKd [3, 5]: 10.51
4 | CCCN1C(=O)CN(C)C(=O)CNC(=O)[C@H]([C@@H](C)CC)NC(=O)[C@H](CC(C)C)N(C)C(=O)C[C@@H](C(=O)N(C)C)N(C)C(=O)[C@H](C2CCCC2)N(C)C(=O)C2(CCC2)NC(=O)[C@@H]2C[C@@H](OCC)CN2C(=O)[C@H](CCc2ccc(C(F)(F)F)c(Cl)c2)NC(=O)CN(C)C(=O)[C@@H]1Cc1ccc(C(F)(F)F)cc1 [PP0422] ([NMeL]IG[Sar][NPrPhe(4-CF3)][Sar][hPhe(3-Cl-4-CF3)][Hyp](Et)[Ac4c][NMeGly(cPent)][NMeD]-NMe2; lactam N-11) | 10.77 |  |  |  | HRAS/KRAS (ratio of KD value with respect to HRAS to KD value with respect to KRAS) [1]: B (a compound having 3 or more and less than 10 is denoted as B); NRAS/KRAS (ratio of KD value with respect to NRAS to KD value with respect to KRAS) [2]: B (a compound having 3 or more and less than 10 is denoted as B)
5 | CCCN1C(=O)CN(C)C(=O)CN(CC)C(=O)[C@H]([C@@H](C)CC)NC(=O)[C@H](CC(C)C)N(C)C(=O)C[C@@H](C(=O)N2CCOCC2)NC(=O)[C@H](C2CCCC2)N(C)C(=O)C2(CCC2)NC(=O)[C@@H]2C[C@@H](OCC)CN2C(=O)[C@H](CCc2ccc(C(F)(F)F)c(Cl)c2)NC(=O)CN(C)C(=O)[C@@H]1Cc1ccc(C(F)(F)F)cc1 [PP0336] ([NMeL]I[NEtG][Sar][NPrPhe(4-CF3)][Sar][hPhe(3-Cl-4-CF3)][Hyp](Et)[Ac4c][NMeGly(cPent)]D-Morpholide; lactam N-11) | 8.80 |  | B (a compound having 3 or more and less than 10 is denoted as B) | B (a compound having 3 or more and less than 10 is denoted as B) | 
6 | CCO[C@@H]1C[C@H]2C(=O)NC3(CC(C)(C)C3)C(=O)N(C)[C@@H](C(CC)CC)C(=O)N(C)[C@H](C(=O)N(C)C)CC(=O)N(C)[C@@H](COC)C(=O)N[C@@H]([C@@H](C)CC)C(=O)N(C)CC(=O)N(C)[C@H]3C/C=C\CCN(C3=O)[C@@H](Cc3ccc(C(F)(F)F)cc3)C(=O)N(C)CC(=O)N[C@@H](CCc3ccc(C(F)(F)F)c(OC)c3)C(=O)N2C1 [PP2157] |  | 9.72 | A (a compound having 10 or more and less than 20 is denoted as A) | A (a compound having 10 or more and less than 20 is denoted as A) | 
7 | CC[C@H](C)[C@@H]1NC(=O)[C@H](CC2CC2)N(C)C(=O)C[C@@H](C(=O)N2CCCC2)N(C)C(=O)[C@H](C2CCCC2)N(C)C(=O)C2(CCC2)NC(=O)[C@@H]2CC(F)(F)CN2C(=O)[C@H](CCc2cc(F)c(C(F)(F)F)c(F)c2)NC(=O)CN(C)C(=O)[C@H](Cc2ccc(C(F)(F)F)cc2)N2CC/C=C\C[C@@H](C2=O)N(C)C(=O)CN(C)C1=O [PP1512] |  |  |  |  | HRAS/KRAS (ratio of KD value for HRAS to KD value for KRAS) ([1]; KD ratio class): A (a compound having 10 or more and less than 20 is denoted as A); NRAS/KRAS (ratio of KD value for NRAS to KD value for KRAS) ([2]; KD ratio class): AA (a compound having 20 or more is denoted as AA); pKd [3, 5]: 10.08
8 | CCCN1C(=O)CN(C)C(=O)CN(C)C(=O)[C@H]([C@@H](C)CC)NC(=O)[C@H](CC(C)C)N(C)C(=O)C[C@@H](C(=O)N(C)C)NC(=O)[C@H](C2CCCC2)N(C)C(=O)C2(CCC2)NC(=O)[C@@H]2CC(F)(F)CN2C(=O)[C@H](CCc2ccc(C(F)(F)F)c(Cl)c2)NC(=O)CN(C)C(=O)[C@@H]1Cc1ccc(C(F)(F)F)cc1 [PP0358] ([NMeL]I[Sar][Sar][NPrPhe(4-CF3)][Sar][hPhe(3-Cl-4-CF3)][Pro(4,4-F2)][Ac4c][NMeGly(cPent)]D-NMe2; lactam N-11) | 9.48 |  | C (A compound having a KD ratio of 0.1 or more and less than 3 is denoted as C) | B (a compound having 3 or more and less than 10 is denoted as B) | 
9 | CCCOC[C@H]1C(=O)N[C@@H]([C@@H](C)CC)C(=O)N2CCC[C@H]2C(=O)N(C)[C@H]2C/C=C\CCN(C2=O)[C@@H](Cc2ccc(C(F)(F)F)cc2)C(=O)N(C)CC(=O)N[C@@H](CCc2ccc(C(F)(F)F)c(OC)c2)C(=O)N2C[C@H](OCC)C[C@H]2C(=O)N(C)C2(CCC2)C(=O)N(C)[C@@H](C2CCCC2)C(=O)N(C)[C@H](C(=O)N(C)C)CC(=O)N1C [PP2322] |  | 9.74 | B (a compound having 3 or more and less than 10 is denoted as B) | A (a compound having 10 or more and less than 20 is denoted as A) | 

Now from value to molecule, other results behind:

Row | pKd [3, 4] | pKd ([3]; SPR, Single Cycle Kinetics) | Structure (SMILES) | HRAS/KRAS (ratio of KD value for HRAS to KD value for KRAS) [1] | NRAS/KRAS (ratio of KD value for NRAS to KD value for KRAS) [2] | also measured
10 | 7.96 |  | CCO[C@@H]1C[C@H]2C(=O)NC3(CCC(F)(F)CC3)C(=O)N(C)[C@@H](C3CCCC3)C(=O)N(C)[C@H](C(=O)N3CCOCC3)CC(=O)N(C)[C@@H](CC(C)C)C(=O)N[C@@H]([C@@H](C)CC)C(=O)N(C)CC(=O)N(C)[C@H]3CCCCCN(C3=O)[C@@H](Cc3ccc(C(F)(F)F)cc3)C(=O)N(C)CC(=O)N[C@@H](CCc3cc(F)c(C(F)(F)F)c(F)c3)C(=O)N2C1 [PP0728] |  |  | HRAS/KRAS (ratio of KD value with respect to HRAS to KD value with respect to KRAS) [1]: B (a compound having 3 or more and less than 10 is denoted as B); NRAS/KRAS (ratio of KD value with respect to NRAS to KD value with respect to KRAS) [2]: B (a compound having 3 or more and less than 10 is denoted as B)
11 |  | 10.26 | CCO[C@@H]1C[C@H]2C(=O)NC3(CCC3)C(=O)N(C)[C@@H](C3CCCC3)C(=O)N(C)[C@H](C(=O)N(C)C)CC(=O)N(C)[C@@H](CC)C(=O)N[C@@H]([C@@H](C)CC)C(=O)N(C)CC(=O)N(C)[C@H]3C/C=C\CCN(C3=O)[C@@H](Cc3ccc(C(F)(F)F)cc3)C(=O)N(C)CC(=O)N[C@@H](CCc3cc(F)c(C(F)(F)F)c(F)c3)C(=O)N2C1 [PP0824, (2S,8S,12R,14S,20S,23S,27S,30S,36S,38Z)-20-cyclopentyl-8-[2-[3,5-difluoro-4-(trifluoromethyl)phenyl]ethyl]-12-ethoxy-27-ethyl-N,N,4,19,22,26,32,35-octamethyl-30-[(1S)-1-methylpropyl]-3,6,9,15,18,21,25,28,31,34,42-undecaoxo-2-[[4-(trifluoromethyl)phenyl]methyl]spiro[1,4,7,10,16,19,22,26,29,32,35-undecazatricyclo[34.5.1.0^10,14]dotetracont-38-ene-17,1′-cyclobutane]-23-carboxamide] | A (a compound having 10 or more and less than 20 is denoted as A) | A (a compound having 10 or more and less than 20 is denoted as A) | 
12 |  | 9.37 | CCO[C@@H]1C[C@H]2C(=O)NC3(CCC3)C(=O)N(C)[C@@H](C3CCCC3)C(=O)N(C)[C@H](C(=O)N(C)C)CC(=O)N(C)[C@@H](CC(C)C)C(=O)N[C@@H]([C@@H](C)CC)C(=O)N3CC[C@H]3C(=O)N(C)[C@H]3CC(C)=CCN(C3=O)[C@@H](Cc3ccc(C(F)(F)F)cc3)C(=O)N(C)CC(=O)N[C@@H](CCc3cc(F)c(C(F)(F)F)c(F)c3)C(=O)N2C1 [PP1033] | C (A compound having a KD ratio of 0.1 or more and less than 3 is denoted as C) | C (A compound having a KD ratio of 0.1 or more and less than 3 is denoted as C) | 
